According to ChEMBL document CHEMBL3885881, “DrugMatrix”:

Species on record: Rattus norvegicus
Assay: DrugMatrix - Regimen: Daily Repeat
Format: toxicity, organism-based, Sprague-Dawley
Parameters: regimen Daily Repeat, gender Male, age 6-8 weeks
Settings: in vivo, po, route oral GAVAGE, vehicle .5 % CMC; for BASOPHIL / EOSINOPHIL / ERYTHROCYTE COUNT / HEMATOCRIT / HEMOGLOBIN / LEUKOCYTE COUNT / LYMPHOCYTE / MEAN CORPUSCULAR HEMOGLOBIN / MEAN CORPUSCULAR HEMOGLOBIN CONCENTRATION / MEAN CORPUSCULAR VOLUME / MONOCYTE / NEUTROPHIL / PLATELET COUNT: tissue Blood; for ALANINE AMINOTRANSFERASE / ALBUMIN / ALKALINE PHOSPHATASE / ASPARTATE AMINOTRANSFERASE / BLOOD UREA NITROGEN / CHLORIDE / CHOLESTEROL / CREATINE PHOSPHOKINASE / CREATININE / GLUCOSE / PHOSPHORUS / POTASSIUM / SODIUM / TOTAL PROTEIN: tissue Plasma
[1] = 0 mg/kg, 72 h, dose level Control, time 3 day
[2] = 0 mg/kg, 120 h, dose level Control, time 5 day
[3] = 30 mg/kg, 72 h, dose level Low, time 3 day
[4] = 30 mg/kg, 120 h, dose level Low, time 5 day
[5] = 1750 mg/kg, 72 h, dose level High, time 3 day
[6] = 1750 mg/kg, 120 h, dose level High, time 5 day

Question: Which results are given for `CC(=O)Oc1ccc(C(c2ccc(OC(C)=O)cc2)c2ccccn2)cc1` [BISACODYL]?
Answer: BASOPHIL [1]: 0%; EOSINOPHIL [1]: 0.33%; ERYTHROCYTE COUNT [1]: 6.03 x10E6/uL; HEMATOCRIT [1]: 38.8%; HEMOGLOBIN [1]: 14.26 G/DL; LEUKOCYTE COUNT [1]: 10.64 x10E3/uL; LYMPHOCYTE [1]: 83.33%; MEAN CORPUSCULAR HEMOGLOBIN [1]: 23.64 pg; MEAN CORPUSCULAR HEMOGLOBIN CONCENTRATION [1]: 36.74 G/DL; MEAN CORPUSCULAR VOLUME [1]: 64.32 fL; MONOCYTE [1]: 3.33%; NEUTROPHIL [1]: 13%; PLATELET COUNT [1]: 1264.4 x10E3/uL; ALANINE AMINOTRANSFERASE [1]: 38.83 u/L; ALBUMIN [1]: 3.55 G/DL; ALKALINE PHOSPHATASE [1]: 368.33 u/L; ASPARTATE AMINOTRANSFERASE [1]: 66.17 u/L; BLOOD UREA NITROGEN [1]: 15.67 mg/dL; CHLORIDE [1]: 104.33 MEQ/L; CHOLESTEROL [1]: 76.5 mg/dL; CREATINE PHOSPHOKINASE [1]: 166.83 u/L; CREATININE [1]: 0.52 mg/dL; GLUCOSE [1]: 173.17 mg/dL; PHOSPHORUS [1]: 11.68 mg/dL; POTASSIUM [1]: 6.43 MEQ/L; SODIUM [1]: 149.5 MEQ/L; TOTAL PROTEIN [1]: 5.93 G/DL; BASOPHIL [2]: 0%; EOSINOPHIL [2]: 0%; ERYTHROCYTE COUNT [2]: 5.88 x10E6/uL; HEMATOCRIT [2]: 37.87%; HEMOGLOBIN [2]: 14.48 G/DL; LEUKOCYTE COUNT [2]: 12.43 x10E3/uL; LYMPHOCYTE [2]: 84.17%; MEAN CORPUSCULAR HEMOGLOBIN [2]: 24.65 pg; MEAN CORPUSCULAR HEMOGLOBIN CONCENTRATION [2]: 38.25 G/DL; MEAN CORPUSCULAR VOLUME [2]: 64.47 fL; MONOCYTE [2]: 4.33%; NEUTROPHIL [2]: 11.5%; PLATELET COUNT [2]: 1182.33 x10E3/uL; ALANINE AMINOTRANSFERASE [2]: 38.67 u/L; ALBUMIN [2]: 3.55 G/DL; ALKALINE PHOSPHATASE [2]: 342.5 u/L; ASPARTATE AMINOTRANSFERASE [2]: 63.33 u/L; BLOOD UREA NITROGEN [2]: 15.5 mg/dL; CHLORIDE [2]: 104 MEQ/L; CHOLESTEROL [2]: 75.5 mg/dL; CREATINE PHOSPHOKINASE [2]: 142.5 u/L; CREATININE [2]: 0.62 mg/dL; GLUCOSE [2]: 165.17 mg/dL; PHOSPHORUS [2]: 10.87 mg/dL; POTASSIUM [2]: 6.85 MEQ/L; SODIUM [2]: 150.17 MEQ/L; TOTAL PROTEIN [2]: 5.93 G/DL; BASOPHIL [3]: 0%; EOSINOPHIL [3]: 0%; ERYTHROCYTE COUNT [3]: 6.9 x10E6/uL; HEMATOCRIT [3]: 44.1%; HEMOGLOBIN [3]: 16.25 G/DL; LEUKOCYTE COUNT [3]: 9.75 x10E3/uL; LYMPHOCYTE [3]: 83%; MEAN CORPUSCULAR HEMOGLOBIN [3]: 23.55 pg; MEAN CORPUSCULAR HEMOGLOBIN CONCENTRATION [3]: 36.85 G/DL; MEAN CORPUSCULAR VOLUME [3]: 63.85 fL; MONOCYTE [3]: 4%; NEUTROPHIL [3]: 13%; PLATELET COUNT [3]: 1188.5 x10E3/uL; ALANINE AMINOTRANSFERASE [3]: 37.67 u/L; ALBUMIN [3]: 3.67 G/DL; ALKALINE PHOSPHATASE [3]: 281 u/L; ASPARTATE AMINOTRANSFERASE [3]: 63 u/L; BLOOD UREA NITROGEN [3]: 17 mg/dL; CHLORIDE [3]: 107 MEQ/L; CHOLESTEROL [3]: 72 mg/dL; CREATINE PHOSPHOKINASE [3]: 177 u/L; CREATININE [3]: 0.53 mg/dL; GLUCOSE [3]: 181 mg/dL; PHOSPHORUS [3]: 12.17 mg/dL; POTASSIUM [3]: 7.3 MEQ/L; SODIUM [3]: 152 MEQ/L; TOTAL PROTEIN [3]: 6.1 G/DL; BASOPHIL [4]: 0%; EOSINOPHIL [4]: 0.67%; ERYTHROCYTE COUNT [4]: 6.91 x10E6/uL; HEMATOCRIT [4]: 43.53%; HEMOGLOBIN [4]: 16.47 G/DL; LEUKOCYTE COUNT [4]: 13.9 x10E3/uL; LYMPHOCYTE [4]: 85%; MEAN CORPUSCULAR HEMOGLOBIN [4]: 23.9 pg; MEAN CORPUSCULAR HEMOGLOBIN CONCENTRATION [4]: 37.97 G/DL; MEAN CORPUSCULAR VOLUME [4]: 63 fL; MONOCYTE [4]: 3.33%; NEUTROPHIL [4]: 11%; PLATELET COUNT [4]: 1208 x10E3/uL; ALANINE AMINOTRANSFERASE [4]: 36.67 u/L; ALBUMIN [4]: 3.53 G/DL; ALKALINE PHOSPHATASE [4]: 306.33 u/L; ASPARTATE AMINOTRANSFERASE [4]: 66 u/L; BLOOD UREA NITROGEN [4]: 19 mg/dL; CHLORIDE [4]: 106.33 MEQ/L; CHOLESTEROL [4]: 70.33 mg/dL; CREATINE PHOSPHOKINASE [4]: 149.33 u/L; CREATININE [4]: 0.53 mg/dL; GLUCOSE [4]: 193.33 mg/dL; PHOSPHORUS [4]: 12.23 mg/dL; POTASSIUM [4]: 6.8 MEQ/L; SODIUM [4]: 151.67 MEQ/L; TOTAL PROTEIN [4]: 5.7 G/DL; BASOPHIL [5]: 0%; EOSINOPHIL [5]: 0%; ERYTHROCYTE COUNT [5]: 7.45 x10E6/uL; HEMATOCRIT [5]: 45.8%; HEMOGLOBIN [5]: 17.43 G/DL; LEUKOCYTE COUNT [5]: 12.3 x10E3/uL; LYMPHOCYTE [5]: 35.67%; MEAN CORPUSCULAR HEMOGLOBIN [5]: 23.5 pg; MEAN CORPUSCULAR HEMOGLOBIN CONCENTRATION [5]: 38.13 G/DL; MEAN CORPUSCULAR VOLUME [5]: 61.47 fL; MONOCYTE [5]: 13.67%; NEUTROPHIL [5]: 50.67%; PLATELET COUNT [5]: 1194 x10E3/uL; ALANINE AMINOTRANSFERASE [5]: 34 u/L; ALBUMIN [5]: 4.3 G/DL; ALKALINE PHOSPHATASE [5]: 166 u/L; ASPARTATE AMINOTRANSFERASE [5]: 53 u/L; BLOOD UREA NITROGEN [5]: 64 mg/dL; CHLORIDE [5]: 84 MEQ/L; CHOLESTEROL [5]: 44 mg/dL; CREATINE PHOSPHOKINASE [5]: 148 u/L; CREATININE [5]: 0.7 mg/dL; GLUCOSE [5]: 165 mg/dL; PHOSPHORUS [5]: 9.4 mg/dL; POTASSIUM [5]: 8.2 MEQ/L; SODIUM [5]: 131 MEQ/L; TOTAL PROTEIN [5]: 7.9 G/DL; BASOPHIL [6]: 0%; EOSINOPHIL [6]: 0%; ERYTHROCYTE COUNT [6]: 7.22 x10E6/uL; HEMATOCRIT [6]: 44.95%; HEMOGLOBIN [6]: 16.55 G/DL; LEUKOCYTE COUNT [6]: 14.05 x10E3/uL; LYMPHOCYTE [6]: 38%; MEAN CORPUSCULAR HEMOGLOBIN [6]: 22.95 pg; MEAN CORPUSCULAR HEMOGLOBIN CONCENTRATION [6]: 36.8 G/DL; MEAN CORPUSCULAR VOLUME [6]: 62.3 fL; MONOCYTE [6]: 6.5%; NEUTROPHIL [6]: 55.5%; PLATELET COUNT [6]: 1469 x10E3/uL; ALANINE AMINOTRANSFERASE [6]: 29 u/L; ALBUMIN [6]: 3.9 G/DL; ALKALINE PHOSPHATASE [6]: 258 u/L; ASPARTATE AMINOTRANSFERASE [6]: 36 u/L; BLOOD UREA NITROGEN [6]: 37 mg/dL; CHLORIDE [6]: 102.5 MEQ/L; CHOLESTEROL [6]: 71 mg/dL; CREATINE PHOSPHOKINASE [6]: 190 u/L; CREATININE [6]: 0.7 mg/dL; GLUCOSE [6]: 183 mg/dL; PHOSPHORUS [6]: 12.1 mg/dL; POTASSIUM [6]: 8 MEQ/L; SODIUM [6]: 147.5 MEQ/L; TOTAL PROTEIN [6]: 7.6 G/DL
